{"source": "patent US6472433B2", "about": "“Method for treatment of inflammation with R-NSAIDS” (Loma Linda University Medical Center, priority 1999, dated 2002)", "key": {"[1]": {"tested_on": "carrageenan-induced paw edema", "settings": "cited from earlier work; for reduction of edema: dosage of 0.3 mg/kg, enantiomeric purity not disclosed"}, "[2]": {"tested_on": "carrageenan-induced paw edema", "test": "Carrageenan paw test (hind paw edema, plethysmometer)", "type": "in vivo, male Long Evans derived rats", "settings": "for Result (Reduction of Edema): 1 h before carrageenan, paw volume 3 h after injection", "protocol": "In this test, the test compound is administered to several rats. Thereafter, a paw on each rat is injected with a solution of carrageenan in order to induce edema in the paw as a measure of inflammation. After three hours, the volume of the paw is measured using a plethysmometer. Reduction of edema by 30% or more, as compared to a control group which was not given the test compound, is considered indicative of anti-inflammatory activity.\nThis very pure form of R-flurbiprofen, was tested for anti-inflammatory activity by the carrageenan paw test. Seven groups of eight male Long Evans derived rats weighing 150±20 grams were fasted overnight. One hour after oral administration a suspension of the test substance in 2% Tween 80, as documented in Table 1 below, the right hind paw of each rat was injected intraplantarly with 0.1 ml of a 1% suspension of carrageenan. Three hours after injection, the hind paw volume was measured using a plethysmometer and recorded."}, "[3]": {"settings": "humans; cited from earlier work"}}}
{"smiles": "C[C@H](C(=O)O)c1ccc(-c2ccccc2)c(F)c1", "note": "[S-flurbiprofen, reference compound]", "values": [{"measurement": "reduction of edema", "setting": "[1]", "value": 64, "unit": "%"}]}
{"smiles": "C[C@@H](C(=O)O)c1ccc(-c2ccccc2)c(F)c1", "note": "[R-Flurbiprofen, R-flurbiprofen]", "values": [{"measurement": "Anti-Inflammatory Activity", "setting": "[2]; 5 mg/kg oral", "value": "Yes (Reduction of edema by 30% or more, as compared to a control group which was not given the test compound, is considered indicative of anti-inflammatory activity)"}, {"measurement": "Result (Reduction of Edema)", "setting": "[2]; 5 mg/kg oral", "value": 30, "unit": "%"}, {"measurement": "Anti-Inflammatory Activity", "setting": "[2]; 10 mg/kg oral", "value": "Yes (Reduction of edema by 30% or more, as compared to a control group which was not given the test compound, is considered indicative of anti-inflammatory activity)"}, {"measurement": "Result (Reduction of Edema)", "setting": "[2]; 10 mg/kg oral", "value": 41, "unit": "%"}, {"measurement": "Anti-Inflammatory Activity", "setting": "[2]; 20 mg/kg oral", "value": "Yes (Reduction of edema by 30% or more, as compared to a control group which was not given the test compound, is considered indicative of anti-inflammatory activity)"}, {"measurement": "Result (Reduction of Edema)", "setting": "[2]; 20 mg/kg oral", "value": 47, "unit": "%"}, {"measurement": "Anti-Inflammatory Activity", "setting": "[2]; 40 mg/kg oral", "value": "Yes (Reduction of edema by 30% or more, as compared to a control group which was not given the test compound, is considered indicative of anti-inflammatory activity)"}, {"measurement": "Result (Reduction of Edema)", "setting": "[2]; 40 mg/kg oral", "value": 51, "unit": "%"}, {"measurement": "reduction of edema", "setting": "[1]", "value": 18, "unit": "%"}, {"measurement": "reduction in inflammation", "setting": "[1]; highest dose, 2.5 mg/kg (not at 0.1, 0.3, 1 mg/kg)", "value": "statistically significant reduction in inflammation"}, {"measurement": "S-enantiomer in circulation at steady state (formed by inversion of the R-enantiomer)", "setting": "[3]", "value": 1.5, "unit": "%"}]}
{"smiles": "O=C(c1ccccc1)c1ccc2n1CC[C@H]2C(=O)O", "note": "[R-ketorolac]", "values": [{"measurement": "S-enantiomer in circulation at steady state (formed by inversion of the R-enantiomer)", "setting": "[3]", "value": 6, "unit": "%"}]}
{"smiles": "CC(=O)Oc1ccccc1C(=O)O", "note": "[Aspirin, reference compound]", "values": [{"measurement": "Anti-Inflammatory Activity", "setting": "[2]; 150 mg/kg oral", "value": "Yes (Reduction of edema by 30% or more, as compared to a control group which was not given the test compound, is considered indicative of anti-inflammatory activity)"}, {"measurement": "Result (Reduction of Edema)", "setting": "[2]; 150 mg/kg oral", "value": 42, "unit": "%"}]}
{"smiles": "CCc1cccc2c3c([nH]c12)[C@@](CC)(CC(=O)O)OCC3", "note": "[R-etodolac]", "values": [{"measurement": "S-enantiomer in circulation at steady state (formed by inversion of the R-enantiomer)", "setting": "[3]", "value": 0, "unit": "%"}]}
